Measured values taken from publication PMC6981637, “Tetrahydroquinoline-Isoxazole/Isoxazoline Hybrid Compounds as Potential Cholinesterases Inhibitors: Synthesis, Enzyme Inhibition Assays, and Molecular Modeling Studies” (International Journal of Molecular Sciences, 2019).
“And” between values parts separate entries of the source, which are not always exact repeats. Equal values may be shown once. Read-outs that look alike come from different tables or passages of the source.

Assays:
BChE (from bovine serum) = target: T1, BChE (from bovine serum) (Bos taurus, UniProt P32749); assay: BChE inhibitory activity (Ellman method); assay type: biochemical; details: for IC50: average from three independent experiments ± SEM; for selectivity against BChE: conclusions
T1 construct: purchased Sigma-Aldrich

[1] = target: AChE (from Electrophorus electricus) (Electrophorus electricus, UniProt O42275)
[2] = Table 1, THQ–isoxazoline hybrids 5, read-out: IC50 BChE
[3] = Table 2, THQ–isoxazole hybrids 6, read-out: BChE (IC50)

T1 sequence (P32749 29-602): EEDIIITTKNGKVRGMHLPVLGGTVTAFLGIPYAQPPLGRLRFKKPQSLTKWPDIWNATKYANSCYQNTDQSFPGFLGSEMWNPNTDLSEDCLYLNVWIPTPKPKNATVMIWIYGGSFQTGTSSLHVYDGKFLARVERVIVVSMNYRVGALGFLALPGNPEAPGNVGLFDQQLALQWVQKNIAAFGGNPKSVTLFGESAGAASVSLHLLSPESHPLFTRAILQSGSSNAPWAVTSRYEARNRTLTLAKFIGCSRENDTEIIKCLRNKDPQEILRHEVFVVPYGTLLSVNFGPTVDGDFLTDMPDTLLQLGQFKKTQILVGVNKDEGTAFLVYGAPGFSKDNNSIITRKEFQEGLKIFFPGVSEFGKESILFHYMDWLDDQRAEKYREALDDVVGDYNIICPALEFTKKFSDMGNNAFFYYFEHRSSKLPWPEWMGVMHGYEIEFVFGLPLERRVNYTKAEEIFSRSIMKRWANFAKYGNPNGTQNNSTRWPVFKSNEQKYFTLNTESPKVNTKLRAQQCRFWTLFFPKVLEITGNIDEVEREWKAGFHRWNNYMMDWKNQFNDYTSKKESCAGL
AChE (from Electrophorus electricus), sequence (O42275 24-633): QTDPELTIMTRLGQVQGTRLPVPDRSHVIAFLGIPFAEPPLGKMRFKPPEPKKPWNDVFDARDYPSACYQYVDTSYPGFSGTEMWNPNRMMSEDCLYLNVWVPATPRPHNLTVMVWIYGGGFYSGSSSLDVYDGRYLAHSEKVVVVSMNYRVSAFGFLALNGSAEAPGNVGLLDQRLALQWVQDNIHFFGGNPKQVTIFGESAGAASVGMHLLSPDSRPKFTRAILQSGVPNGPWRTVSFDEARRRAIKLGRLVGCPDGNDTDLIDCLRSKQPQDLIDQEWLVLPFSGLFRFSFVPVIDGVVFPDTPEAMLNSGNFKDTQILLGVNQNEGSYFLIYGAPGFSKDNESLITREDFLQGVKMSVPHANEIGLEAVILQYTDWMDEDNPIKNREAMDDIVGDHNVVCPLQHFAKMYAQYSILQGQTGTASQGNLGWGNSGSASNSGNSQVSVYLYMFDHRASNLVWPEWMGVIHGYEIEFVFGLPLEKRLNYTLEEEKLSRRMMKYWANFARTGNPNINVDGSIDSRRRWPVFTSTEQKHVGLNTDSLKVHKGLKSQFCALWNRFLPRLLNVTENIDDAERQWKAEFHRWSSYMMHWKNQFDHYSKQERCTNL

| Compound | IC50 (BChE (from bovine serum); [2]) | SI [1] | IC50 ([1]; read-out: IC50 AChE) | IC50 (BChE (from bovine serum); [3]) | IC50 ([1]; read-out: AChE (IC50)) | selectivity against BChE (BChE (from bovine serum)) | times more potent against BChE than for the AChE enzyme (BChE (from bovine serum); selectivity for BChE) | selectivity for inhibiting AChE [1] |
| --- | --- | --- | --- | --- | --- | --- | --- | --- |
| COc1ccc2c(c1)C(N1CCCC1=O)CCN2CC1CC(c2ccccc2)=NO1 (stereo not shown) [5i, 5-[(6-methoxy-4-(2′-oxopyrrolidin-1′-yl)-3,4-dihydroquinolin-1(2H)-yl)-methyl]-3-phenyl-4,5-dihydroisoxazole] | 146.37 ± 0.03 µM | 1.79 | 82.04 ± 0.11 µM |  |  |  |  |  |
| COc1ccc(C2=NOC(CN3CCC(N4CCCC4=O)c4cc(OC)ccc43)C2)cc1 (stereo not shown) [5j, 3-(4-methoxyphenyl)-5-[(6-methoxy-4-(2′-oxopyrrolidin-1′-yl)-3,4-dihydroquinolin-1(2H)-yl)-methyl]-4,5-dihydroisoxazole] | 144.71 ± 0.004 µM | 1.55 | 93.66 ± 0.006 µM |  |  |  |  |  |
| COc1cc(-c2cc(CN3CCC(N4CCCC4=O)c4cc(Cl)ccc43)on2)cc(OC)c1OC (stereo not shown) [6p, 5-((6′-chloro-4′-(2′’-oxopyrrolidin-1′’-yl)-3′,4′-dihydroquinolin-1′(2′H)-yl)methyl)-3-(3,4,5-trimethoxyphenyl)isoxazole] |  | 1.11 |  | 46.84 ± 0.01 µM | 41.95 ± 0.11 µM |  |  |  |
| COc1ccc2c(c1)C(N1CCCC1=O)CCN2Cc1cc(-c2ccccc2)no1 (stereo not shown) [6h, 5-((6′-methoxy-4′-(2′’-oxopyrrolidin-1′’-yl)-3′,4′-dihydroquinolin-1′(2′H)-yl)methyl)-3-phenylisoxazole] |  | 0.08 |  | < 7.18 µM and 4.33 µM | 52.76 ± 0.01 µM | more selective |  |  |
| COc1cc(-c2cc(CN3CCC(N4CCCC4=O)c4cc(Br)ccc43)on2)cc(OC)c1OC (stereo not shown) [6ab, 5-((6′-bromo-4′-(2′’-oxopyrrolidin-1′’-yl)-3′,4′-dihydroquinolin-1′(2′H)-yl)methyl)-3-(3,4,5-trimethoxyphenyl)isoxazole] |  | 0.36 |  | 54.09 ± 0.01 µM | 148.31 ± 0.004 µM |  |  |  |
| CCc1ccc2c(c1)C(N1CCCC1=O)CCN2Cc1cc(-c2ccccc2)no1 (stereo not shown) [6q, 5-((6′-ethyl-4′-(2′’-oxopyrrolidin-1′’-yl)-3′,4′-dihydroquinolin-1′(2′H)-yl)methyl)-3-phenylisoxazole] |  | 1.43 |  | 108.28 ± 0.01 µM | 75.95 ± 0.04 µM |  |  |  |
| COc1ccc(-c2cc(CN3CCC(N4CCCC4=O)c4cc(F)ccc43)on2)cc1 (stereo not shown) [6v, 5-((6′-fluoro-4′-(2′’-oxopyrrolidin-1′’-yl)-3′,4′-dihydroquinolin-1′(2′H)-yl)methyl)-3-(4-methoxyphenyl)isoxazole] |  | 1.97 |  | 83.75 ± 0.01 µM | 42.48 ± 0.004 µM |  |  |  |
| COc1ccc(-c2cc(CN3CCC(N4CCCC4=O)c4cc(C)ccc43)on2)cc1 (stereo not shown) [6e, 3-(4-methoxyphenyl)-5-((6′-methyl-4′-(2′’-oxopyrrolidin-1′’-yl)-3′,4′-dihydroquinolin-1′(2′H)-yl)methyl)isoxazole] |  | 2.62 |  | 79.81 ± 0.06 µM | 30.43 ± 0.02 µM |  |  |  |
| COc1ccc(-c2cc(CN3CCC(N4CCCC4=O)c4cc(Br)ccc43)on2)cc1OC (stereo not shown) [6aa, 3-(3,4-dimethoxyphenyl)-5-((6′-bromo-4′-(2′’-oxopyrrolidin-1′’-yl)-3′,4′-dihydroquinolin-1′(2′H)-yl)methyl)isoxazole] |  | 0.04 |  | < 7.18 µM and 3.97 µM | 96.1 ± 0.01 µM | more selective | about 24 times |  |
| COc1cc(C2=NOC(CN3CCC(N4CCCC4=O)c4ccccc43)C2)cc(OC)c1OC (stereo not shown) [5d, 3-(3,4,5-trimethoxyphenyl)-5-[4-((2′-oxopyrrolidin-1′-yl)-3,4-dihydroquinolin-1(2H)-yl)-methyl]-4,5-dihydroisoxazole] | 13.66 ± 0.01 µM | 0.27 | 49.82 ± 0.03 µM |  |  |  |  |  |
| COc1cc(C2=NOC(CN3CCC(N4CCCC4=O)c4cc(C)ccc43)C2)cc(OC)c1OC (stereo not shown) [5h, 5-[(6-methyl-4-(2′-oxopyrrolidin-1′-yl)-3,4-dihydroquinolin-1(2H)-yl)-methyl]-3-(3,4,5-trimethoxyphenyl)-4,5-dihydroisoxazole] | 63.72 ± 0.001 µM | 1.70 | 37.41 ± 0.03 µM |  |  |  |  |  |
| CCc1ccc2c(c1)C(N1CCCC1=O)CCN2Cc1cc(-c2ccc(OC)cc2)no1 (stereo not shown) [6r, 5-((6′-ethyl-4′-(2′’-oxopyrrolidin-1′’-yl)-3′,4′-dihydroquinolin-1′(2′H)-yl)methyl)-3-(4-methoxyphenyl)isoxazole] |  | 0.38 |  | < 7.18 µM and 7.18 µM | 18.83 ± 0.003 µM |  |  |  |
| COc1cc(-c2cc(CN3CCC(N4CCCC4=O)c4ccccc43)on2)cc(OC)c1OC (stereo not shown) [6c, 3-(3,4,5-trimethoxyphenyl)-5-((4′-(2′’-oxopyrrolidin-1′’-yl)-3′,4′-dihydroquinolin-1′(2′H)-yl)methyl)isoxazole] |  | 2.17 |  | 47.96 ± 0.01 µM | 22.07 ± 0.01 µM |  |  |  |
| Cc1ccc2c(c1)C(N1CCCC1=O)CCN2Cc1cc(-c2ccccc2)no1 (stereo not shown) [6d, 5-((6′-methyl-4′-(2′’-oxopyrrolidin-1′’-yl)-3′,4′-dihydroquinolin-1′(2′H)-yl)methyl)-3-phenylisoxazole] |  | 0.49 |  | 18.51 ± 0.01 µM | 37.84 ± 0.01 µM |  |  |  |
| CCc1cc(Cl)c2c(c1)C(N1CCCC1=O)CCN2Cc1cc(-c2ccc(OC)c(OC)c2)no1 (stereo not shown) [6s, 5-((8′-chloro-6′-ethyl-4′-(2′’-oxopyrrolidin-1′’-yl)-3′,4′-dihydroquinolin-1′(2′H)-yl)methyl)-3-(3,4-dimethoxyphenyl)isoxazole] |  | 0.83 |  | 22.28 ± 0.004 µM | 26.82 ± 0.002 µM |  |  |  |
| COc1ccc2c(c1)C(N1CCCC1=O)CCN2CC1CC(c2ccc(OC)c(OC)c2)=NO1 (stereo not shown) [5k, 3-(3,4-dimethoxyphenyl)-5-[(6-methoxy-4-(2′-oxopyrrolidin-1′-yl)-3,4-dihydroquinolin-1(2H)-yl)-methyl]-4,5-dihydroisoxazole] | 255.82 ± 0.01 µM | 16.8 | 15.26 ± 0.02 µM |  |  |  |  | significant selectivity |
| COc1cc(C2=NOC(CN3CCC(N4CCCC4=O)c4cc(Cl)ccc43)C2)cc(OC)c1OC (stereo not shown) [5p, 5-[(6-chloro-4-(2′-oxopyrrolidin-1′-yl)-3,4-dihydroquinolin-1(2H)-yl)-methyl]-3-(3,4,5-trimethoxyphenyl)-4,5-dihydroisoxazole] | 106 ± 2 µM | 8.61 | 12.28 ± 0.01 µM |  |  |  |  |  |
| COc1ccc(-c2cc(CN3CCC(N4CCCC4=O)c4cc(OC)ccc43)on2)cc1 (stereo not shown) [6i, 3-(4-methoxyphenyl)-5-((6′-methoxy-4′-(2′’-oxopyrrolidin-1′’-yl)-3′,4′-dihydroquinolin-1′(2′H)-yl)methyl)isoxazole] |  | 2.52 |  | 213.22 ± 0.01 µM | 84.51 ± 0.01 µM |  |  |  |
| CCc1ccc2c(c1)C(N1CCCC1=O)CCN2Cc1cc(-c2cc(OC)c(OC)c(OC)c2)no1 (stereo not shown) [6t, 5-((6′-ethyl-4′-(2′’-oxopyrrolidin-1′’-yl)-3′,4′-dihydroquinolin-1′(2′H)-yl)methyl)-3-(3,4,5-trimethoxyphenyl)isoxazole] |  |  |  |  | 66.77 ± 0.01 µM |  |  |  |
| O=C1CCCN1C1CCN(CC2CC(c3ccccc3)=NO2)c2ccccc21 (stereo not shown) [5a, 3-phenyl-5-[(4-(2′-oxopyrrolidin-1′-yl)-3,4-dihydroquinolin-1(2H)-yl)-methyl]-4,5 dihydroisoxazole] | 81.9 ± 0.04 µM | 1.06 | 77.37 ± 0.01 µM |  |  |  |  |  |
| COc1ccc2c(c1)C(N1CCCC1=O)CCN2CC1CC(c2cc(OC)c(OC)c(OC)c2)=NO1 (stereo not shown) [5l, 5-[(6-methoxy-4-(2′-oxopyrrolidin-1′-yl)-3,4-dihydroquinolin-1(2H)-yl)-methyl]-3-(3,4,5-trimethoxyphenyl)-4,5-dihydroisoxazole] | 43.67 ± 0.02 µM | 0.40 | 109.26 ± 0.01 µM |  |  |  |  |  |
| COc1ccc(-c2cc(CN3CCC(N4CCCC4=O)c4cc(Cl)ccc43)on2)cc1 (stereo not shown) [6m, 5-((6′-chloro-4′-(2′’-oxopyrrolidin-1′’-yl)-3′,4′-dihydroquinolin-1′(2′H)-yl)methyl)-3-(4-methoxyphenyl)isoxazole] |  | 1.39 |  | 18.42 ± 0.01 µM | 13.27 ± 0.01 µM |  |  |  |
| COc1cc(-c2cc(CN3CCC(N4CCCC4=O)c4cc(F)ccc43)on2)cc(OC)c1OC (stereo not shown) [6x, 5-((6′-fluoro-4′-(2′’-oxopyrrolidin-1′’-yl)-3′,4′-dihydroquinolin-1′(2′H)-yl)methyl)-3-(3,4,5-trimethoxyphenyl)isoxazole] |  | 6.57 |  | 163.12 ± 0.01 µM | 24.83 ± 0.003 µM |  |  |  |
| O=C1CCCN1C1CCN(CC2CC(c3ccccc3)=NO2)c2ccc(Cl)cc21 (stereo not shown) [5m, 5-[(6-chloro-4-(2′-oxopyrrolidin-1′-yl)-3,4-dihydroquinolin-1(2H)-yl)-methyl]-3-phenyl-4,5-dihydroisoxazole] | 19.09 ± 0.01 µM | 0.63 | 30.1 ± 0.01 µM |  |  |  |  | significant selectivity |
| O=C1CCCN1C1CCN(Cc2cc(-c3ccccc3)no2)c2ccc(Br)cc21 (stereo not shown) [6y, 5-((6′-bromo-4′-(2′’-oxopyrrolidin-1′’-yl)-3′,4′-dihydroquinolin-1′(2′H)-yl)methyl)-3-phenylisoxazole] |  | 0.87 |  | 84.91 ± 0.01 µM | 97.84 ± 0.01 µM |  |  |  |
| COc1ccc(C2=NOC(CN3CCC(N4CCCC4=O)c4cc(Cl)ccc43)C2)cc1OC (stereo not shown) [5o, 3-(4,5-dimethoxyphenyl)-5-[(6-chloro-4-(2′-oxopyrrolidin-1′-yl)-3,4-dihydroquinolin-1(2H)-yl)-methyl]-4,5-dihydroisoxazole] | 83.65 ± 0.01 µM | 6.35 | 13.17 ± 0.02 µM |  |  |  |  | significant selectivity |
| COc1ccc(C2=NOC(CN3CCC(N4CCCC4=O)c4ccccc43)C2)cc1 (stereo not shown) [5b, 3-(4-methoxyphenyl)-5-[4-((2′-oxopyrrolidin-1′-yl)-3,4-dihydroquinolin-1(2H)-yl)-methyl]-4,5-dihydroisoxazole] | 65.59 ± 0.006 µM | 0.69 | 95.14 ± 0.08 µM |  |  |  |  |  |
| COc1ccc(C2=NOC(CN3CCC(N4CCCC4=O)c4ccccc43)C2)cc1OC (stereo not shown) [5c, 3-(3,4-dimethoxyphenyl)-5-[4-((2′-oxopyrrolidin-1′-yl)-3,4-dihydroquinolin-1(2H)-yl)-methyl]-4,5-dihydroisoxazole] |  |  | 100.65 ± 0.05 µM |  |  |  |  |  |
| COc1ccc2c3c1O[C@H]1C[C@@H](O)C=C[C@@]31CCN(C)C2 [Galantamine, galantamine, reference compound] | 8.8 ± 0.5 µM |  |  | 8.8 ± 0.5 µM |  |  |  |  |
